Measurements: US20260001928A1 (CORTERIA PHARMACEUTICALS, priority 2022, published 2026)
*1 amine or outer side, *2 acyl side, *3 side chain or, on linkers, in order; H or OH if unused. Where a SMILES comes first, the peptide text is derived from it. Side-chain parts run from the residue outwards. [ ]: non-standard residue; d: D form. The star is where a group is joined. C20 diacid = O=C(O)CCCCCCCCCCCCCCCCCCC(=O)*; C18 diacid = O=C(O)CCCCCCCCCCCCCCCCC(=O)*; γGlu = O=C(O)[C@H](CCC(=O)[*:2])N[*:1]; NMeI = CC[C@H](C)[C@H](NC)C(=O)O; AEEA = NCCOCCOCC(=O)O; Aib = CC(C)(N)C(=O)O

Columns and labels:
rat CRF2 a = biological target: T1, rat CRF2 a (Rattus norvegicus, UniProt P47866); assay: Activity at rat CRF2 a, cAMP assay in A7R5 rat aortic smooth muscle cells; format: cell-based; conditions: 0% HSA, 100% = Sauvagine at 100 nM
T1 construct: host or cells: A7R5 rat aortic smooth muscle cells
Procedure: The A7R5 rat aortic smooth muscle cell line used in this study was purchased from ATCC.
Cells were grown in a 10 cm dish at 37° C./5% CO2 in medium (DMEM/10% FBS) to near confluence. At that stage, cells were harvested, resuspended to 10 million/mL in culture medium and with 5% DMSO. 1 mL vial aliquots were slowly frozen to −80° C. in isopropanol and then transferred in liquid nitrogen for storage.
These vials were used to run the experiment following the procedure reported in the previous paragraph, except for the compound used in the control well to define the 100% activation (Sauvagine at 100 nM) and the cell density (final cell density: 5000 cells/well).

CFR1R receptor = biological target: T2, CFR1R receptor (Homo sapiens, UniProt P34998); assay: Activity at anti-target CFR1R receptor, cAMP assay in CRF1R-overexpression CHO-K1 cells; format: cell-based; conditions: 100% = Sauvagine at 100 nM; for EC50: cAMP
T2 construct: host or cells: CHO-K1 (clone 2)
T2 sequence (P34998 24-415): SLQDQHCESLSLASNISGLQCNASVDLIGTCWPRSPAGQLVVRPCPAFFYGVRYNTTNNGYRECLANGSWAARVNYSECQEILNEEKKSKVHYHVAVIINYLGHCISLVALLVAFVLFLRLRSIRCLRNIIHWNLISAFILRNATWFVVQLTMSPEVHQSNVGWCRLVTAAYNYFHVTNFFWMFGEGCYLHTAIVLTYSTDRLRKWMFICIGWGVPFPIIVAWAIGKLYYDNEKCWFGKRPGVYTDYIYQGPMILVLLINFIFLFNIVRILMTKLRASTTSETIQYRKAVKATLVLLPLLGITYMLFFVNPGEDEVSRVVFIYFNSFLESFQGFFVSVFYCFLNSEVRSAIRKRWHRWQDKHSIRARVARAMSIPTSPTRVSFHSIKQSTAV
Summary of the method: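 Grow clone 2 to near confluence at 37° C. under 5% CO2 in F12 (Hams) with 10% FBS and G418, harvest, and freeze in 10% DMSO. Thaw and plate at 4000 cells/well. Then proceed per the TeloHAEC method, normalising to Sauvagine 100 nM as maximum.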

[1] = Chemical stability in buffer (pH 7.4 / pH 4.5), % purity loss; format: physicochemical; conditions: 40° C. vs 5° C., 14 or 28 days; for Buffer stability pH 7.4 % purity loss: 100 mM phosphate buffer pH 7.4
Summary of the method: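 LC-UV gave % loss after 14 or 28 days of storage at 5 °C or 40 °C. Samples were diluted supernatants from compound incubated 1 h at room temperature at 10 mg/mL target, in 100 mM acetate pH 4.5 or 100 mM phosphate pH 7.4.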

[2] = Pharmacokinetics in male Sprague Dawley rats after subcutaneous administration; format: in vivo; conditions: plasma, rat, SC, 0.05 mg/kg
[3] = as above; format: in vivo; conditions: plasma, rat, IV
human CRF2a receptor = biological target: T3, human CRF2a receptor (Homo sapiens, UniProt Q13324); assay: Activity at human CRF2a receptor, cAMP functional assay in TeloHEAC cells; format: cell-based; conditions: TeloHEAC cells stably expressing human CRF2a receptor, relative to urocortin 2 (100 nM = 100%)
T3 construct: expressed in transfected cells; host or cells: TeloHEAC cells
T3 sequence (Q13324 1-411): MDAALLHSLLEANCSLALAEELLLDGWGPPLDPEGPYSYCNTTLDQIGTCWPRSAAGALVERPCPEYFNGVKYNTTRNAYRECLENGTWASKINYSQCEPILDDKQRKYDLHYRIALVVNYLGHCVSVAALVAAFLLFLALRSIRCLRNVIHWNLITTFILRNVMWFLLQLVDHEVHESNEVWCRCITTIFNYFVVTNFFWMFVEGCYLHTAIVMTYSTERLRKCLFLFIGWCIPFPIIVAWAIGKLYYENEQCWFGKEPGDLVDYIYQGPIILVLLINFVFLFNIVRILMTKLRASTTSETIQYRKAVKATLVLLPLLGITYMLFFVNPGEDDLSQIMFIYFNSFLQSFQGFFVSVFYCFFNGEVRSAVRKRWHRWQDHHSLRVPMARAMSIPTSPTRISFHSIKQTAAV
Summary of the method: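 TeloHEAC cells stably expressing human CRF2a (10000 cells/well) were treated with 16-point 1:2 compound dilutions in HBSS/20 mM HEPES with IBMX for 30 min at 37° C. cAMP was read by HTRF (665/620 nm ratio). EC50 was the concentration giving 50% activation, with 100 nM urocortin 2 set as 100%.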

[4] = In vitro subcutaneous tissue supernatant (SCts) stability and metabolite identification, rat; format: in vitro ADME; parameters: remaining at 2 h: dose or concentration left out as unconfirmed; conditions: male, Sprague Dawley; rat subcutaneous tissue supernatant (SCts), 37° C, 2 h
Sprague Dawley rats = assay: Effect on systolic blood pressure, telemetry in Sprague Dawley rats; format: in vivo, rat; conditions: 0.1 mg/kg SC
Summary of the method: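 Values are % change from a 1 h pre-dose baseline in systolic pressure, tracked by telemetry for up to 48 hours after a single 0.1 mg/kg subcutaneous dose. Rats (Sprague Dawley, n=2 per peptide) carried aortic catheters and recovered at least 10 days post-surgery; duration of action marks the last time point still showing an effect.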

T1 sequence (P47866 27-431 isoform P47866-2 limits assumed): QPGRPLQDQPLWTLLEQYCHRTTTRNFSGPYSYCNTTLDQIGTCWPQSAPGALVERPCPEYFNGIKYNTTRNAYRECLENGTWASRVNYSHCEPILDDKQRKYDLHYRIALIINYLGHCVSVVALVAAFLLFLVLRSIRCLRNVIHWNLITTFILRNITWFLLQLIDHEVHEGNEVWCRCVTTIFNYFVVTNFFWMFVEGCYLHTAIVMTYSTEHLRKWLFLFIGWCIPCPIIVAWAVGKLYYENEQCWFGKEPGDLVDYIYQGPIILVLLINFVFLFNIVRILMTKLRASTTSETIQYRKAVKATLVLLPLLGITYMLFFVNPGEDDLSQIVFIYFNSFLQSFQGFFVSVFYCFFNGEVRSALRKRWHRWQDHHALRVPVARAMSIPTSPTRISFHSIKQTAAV

CC[C@H](C)[C@H](NC)C(=O)N[C@H](C(=O)N[C@@H](CC(C)C)C(=O)N[C@@H](CO)C(=O)N[C@@H](CC(C)C)C(=O)N[C@@H](CC(=O)O)C(=O)N[C@@H](C(=O)N1CCC[C@H]1C(=O)N[C@H](C(=O)N[C@@H](CCCCN)C(=O)N[C@@H](CC(C)C)C(=O)N[C@@H](CCCCNC(=O)COCCOCCNC(=O)CC[C@H](NC(=O)CCCCCCCCCCCCCCCCCCC(=O)O)C(=O)O)C(=O)N[C@@H](CCCCN)C(=O)N[C@H](C(=O)N[C@@H](CC(C)C)C(=O)N[C@@H](CC(C)C)C(=O)N[C@@H](CCC(=O)O)C(=O)N[C@@H](CCC(N)=O)C(=O)N[C@@H](CCC(=O)O)C(=O)N[C@@H](CCCCN)C(=O)N[C@@H](CCC(N)=O)C(=O)N[C@@H](CCCCN)C(=O)NC(C)(C)C(=O)N[C@@H](CCC(N)=O)C(=O)N[C@@H](CCCNC(=N)N)C(=O)N[C@@H](CCC(=O)O)C(=O)N[C@@H](CCC(N)=O)C(=O)N[C@@H](C)C(=O)N[C@@H](CCC(=O)O)C(=O)N[C@H](C(=O)N[C@@H](CC(N)=O)C(=O)NC(C)(C)C(=O)N[C@@H](CCC(N)=O)C(=O)N[C@H](C(=O)N[C@@H](CC(C)C)C(=O)N[C@@H](C)C(=O)N[C@@H](CCC(N)=O)C(=O)N[C@H](C(N)=O)C(C)C)[C@@H](C)CC)[C@@H](C)O)[C@@H](C)CC)[C@@H](C)CC)C(C)C)C(C)C [compound 234] (H-[NMeI]VLSLD[dV]PIKLK([AEEA-γGlu-C20 diacid])KILLEQEKQK[Aib]QREQAETN[Aib]QILAQV-NH2)
EC50 (rat CRF2 a): 0.05 nM | Emax (% I) (CFR1R receptor): 15 % I | EC50 (CFR1R receptor): > 250 nM | Buffer stability pH 4.5 % purity loss ([1]; 100 mM acetate buffer pH 4.5): 0.0% | Buffer stability pH 7.4 % purity loss [1]: −0.1% | AUC(0-t) [2]: 2730 ng·h/mL | Cmax [2]: 95 ng/mL | Tmax [2]: 6 h | half-life [2]: 7.5 h | AUC(0-t) ([3]; 0.025 mg/kg): 2700 ng·h/mL | half-life ([3]; 0.025 mg/kg): 7 h | EC50 (human CRF2a receptor): 0.09 nM | remaining at 2 h [4]: 68%

CC[C@H](C)[C@H](NC)C(=O)N[C@H](C(=O)N[C@@H](CC(C)C)C(=O)N[C@@H](CO)C(=O)N[C@@H](CC(C)C)C(=O)N[C@@H](CC(=O)O)C(=O)N[C@@H](C(=O)N1CCC[C@H]1C(=O)N[C@H](C(=O)N[C@@H](CCCCN)C(=O)N[C@@H](CC(C)C)C(=O)N[C@@H](CCCCNC(=O)CC[C@H](NC(=O)CCCCCCCCCCCCCCCCC(=O)O)C(=O)O)C(=O)N[C@@H](CCCCN)C(=O)N[C@H](C(=O)N[C@@H](CC(C)C)C(=O)N[C@@H](CC(C)C)C(=O)N[C@@H](CCC(=O)O)C(=O)N[C@@H](CCC(N)=O)C(=O)N[C@@H](CCC(=O)O)C(=O)N[C@@H](CCCCN)C(=O)N[C@@H](CCC(N)=O)C(=O)N[C@@H](CCCCN)C(=O)N[C@@H](C)C(=O)N[C@@H](CCC(N)=O)C(=O)N[C@@H](CCCNC(=N)N)C(=O)N[C@@H](CCC(=O)O)C(=O)N[C@@H](CCC(N)=O)C(=O)N[C@@H](C)C(=O)N[C@@H](CCC(=O)O)C(=O)N[C@H](C(=O)N[C@@H](CC(N)=O)C(=O)NC(C)(C)C(=O)N[C@@H](CCC(N)=O)C(=O)N[C@H](C(=O)N[C@@H](CC(C)C)C(=O)N[C@@H](C)C(=O)N[C@@H](CCC(N)=O)C(=O)N[C@H](C(N)=O)C(C)C)[C@@H](C)CC)[C@@H](C)O)[C@@H](C)CC)[C@@H](C)CC)C(C)C)C(C)C [compound 144] (H-[NMeI]VLSLD[dV]PIKLK([γGlu-C18 diacid])KILLEQEKQKAQREQAETN[Aib]QILAQV-NH2)
EC50 (rat CRF2 a): 0.06 nM | Buffer stability pH 7.4 % purity loss [1]: 0.0/Not Tested % | Systolic blood pressure (Mean) % change from baseline, 8 h (Sprague Dawley rats; 8 h, n=2): −22% | Systolic blood pressure (Mean) % change from baseline, 12 h (Sprague Dawley rats; 12 h, n=2): −17% | Systolic blood pressure (Mean) % change from baseline, 24 h (Sprague Dawley rats; 24 h, n=2): 1% | Duration of action (Sprague Dawley rats; last time point with an effect on BP still observed): 23 h | AUC(0-t) [2]: 1710 ng·h/mL | Cmax [2]: 105 ng/mL | Tmax [2]: 6 h | half-life [2]: 12.6 h | remaining at 2 h [4]: 74%

CC[C@H](C)[C@H](NC)C(=O)N[C@H](C(=O)N[C@@H](CC(C)C)C(=O)N[C@@H](CO)C(=O)N[C@@H](CC(C)C)C(=O)N[C@@H](CC(=O)O)C(=O)N[C@@H](C(=O)N1CCC[C@H]1C(=O)N[C@H](C(=O)N[C@@H](CCCCN)C(=O)N[C@@H](CC(C)C)C(=O)N[C@@H](CCCCNC(=O)CC[C@H](NC(=O)CC[C@H](NC(=O)CCCCCCCCCCCCCCCCCCC(=O)O)C(=O)O)C(=O)O)C(=O)N[C@@H](CCCCN)C(=O)N[C@H](C(=O)N[C@@H](CC(C)C)C(=O)N[C@@H](CC(C)C)C(=O)N[C@@H](CCC(=O)O)C(=O)N[C@@H](CCC(N)=O)C(=O)N[C@@H](CCC(=O)O)C(=O)N[C@@H](CCCCN)C(=O)N[C@@H](CCC(N)=O)C(=O)N[C@@H](CCCCN)C(=O)N[C@@H](CCC(=O)O)C(=O)N[C@@H](CCC(N)=O)C(=O)N[C@@H](CCCNC(=N)N)C(=O)N[C@@H](CCC(=O)O)C(=O)N[C@@H](CCC(N)=O)C(=O)N[C@@H](C)C(=O)N[C@@H](CCC(=O)O)C(=O)N[C@H](C(=O)N[C@@H](CC(N)=O)C(=O)NC(C)(C)C(=O)N[C@@H](CCC(N)=O)C(=O)N[C@H](C(=O)N[C@@H](CC(C)C)C(=O)N[C@@H](C)C(=O)N[C@@H](CCC(N)=O)C(=O)N[C@H](C(N)=O)C(C)C)[C@@H](C)CC)[C@@H](C)O)[C@@H](C)CC)[C@@H](C)CC)C(C)C)C(C)C [compound 242] (H-[NMeI]VLSLD[dV]PIKLK([γGlu-γGlu-C20 diacid])KILLEQEKQKEQREQAETN[Aib]QILAQV-NH2)
EC50 (rat CRF2 a): 0.4 nM | Emax (% I) (CFR1R receptor): 6 % I | EC50 (CFR1R receptor): > 250 nM | Buffer stability pH 7.4 % purity loss [1]: 0.0/Not Tested % | AUC(0-t) ([3]; 0.05 mg/kg): 7970 ng·h/mL | half-life ([3]; 0.05 mg/kg): 14 h | EC50 (human CRF2a receptor): 0.22 nM | remaining at 2 h [4]: 68%
